Experimental data: patent US20260146041A1, “PANNEXIN-1 MODULATORS AND METHODS OF TREATING DISORDERS IN WHICH PANNEXIN-1 IS IMPLICATED” (Pannex Therapeutics Inc., priority 2022, published 2026)

Key:
astrocytes = test: LPS-stimulated ATP release by astrocytes; format: cell-based, rat; conditions: 5 or 50 μM, LPS stimulation, FIG. 15A
Procedure: (§1) Cortical microglia/astrocytes mechanically dissociated from decapitated postnatal P2-P4 rat pups (CD strain) were seeded on P75 flasks (1 brain per flask) and cultured at 37° C., 5% CO2 for 10-20 days using DMEM media supplemented with 10% FBS and 1% pen/strep. On Day 10, microglia were collected by gently shaking and washing and purify by passing through 20 μm cell strainer and centrifugation.
(§2) Re-suspended microglia were counted and plated onto poly-D-lysine coated 96-well culture plate at a density of 80,000 cells/well. Dislodged the remaining astrocytes (enriched astrocytes) and plated onto poly-D-lysine coated 96-well culture plate at a density of 50,000 cells/well. Overnighted microglia and/or astrocytes were treated with the PANX-1 blockers of the invention (5 or 50 μM), vehicle or control (carbenoxolone, CBX) and subjected to lipopolysaccharide stimulation. Extracellular ATP was assessed by multilabel plate reader Envision (ultrasensitive luminescence) using CellTiter-Glo (Promega) kit.

microglial cells = test: LPS-stimulated ATP release by microglial cells; format: cell-based, rat; conditions: 5 or 50 μM, LPS stimulation, FIG. 15B
Procedure: as §1, §2

human PANX1 channels = molecular target: T1, human PANX1 channels (Homo sapiens, UniProt Q96RD7); test: Whole cell patch clamp assessment of PANX1 blockade on HEK293 cells stably expressing human PANX1 channels; format: cell-based; conditions: n=3
T1 construct: expressed in transfected cells; host or cells: HEK293
T1 sequence (Q96RD7 whole entry): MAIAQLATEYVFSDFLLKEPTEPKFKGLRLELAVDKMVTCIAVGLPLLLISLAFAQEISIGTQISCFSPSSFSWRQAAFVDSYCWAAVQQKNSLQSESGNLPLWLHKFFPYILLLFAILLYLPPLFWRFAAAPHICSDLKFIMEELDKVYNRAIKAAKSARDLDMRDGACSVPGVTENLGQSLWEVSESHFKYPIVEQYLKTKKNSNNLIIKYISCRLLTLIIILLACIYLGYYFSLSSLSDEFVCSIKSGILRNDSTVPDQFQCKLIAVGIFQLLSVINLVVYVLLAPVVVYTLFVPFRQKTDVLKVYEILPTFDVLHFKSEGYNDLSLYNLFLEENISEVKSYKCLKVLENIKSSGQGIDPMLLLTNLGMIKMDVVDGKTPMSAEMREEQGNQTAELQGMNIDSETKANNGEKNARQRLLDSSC
Procedure: The assessment of PANX1 blockade was assessed on HEK293 cells stably expressing human PANX1 channels, as previously described by Xu et al (2012). Briefly, wild type cells were seeded in six-well plates and 12-16 hours later, 60-70% confluent cells were transfected with the plasmid encoding hPANX1 using calcium phosphate. After 48 hours post-transfection, geneticin (G418), 0.8 mg/ml in fresh medium, was added to the cells to select for transfected clones and the medium was changed every other day. Once confluent, cells were transferred into flasks and maintained in medium containing G418 (0.8 mg/ml) for a total of 4 weeks from the transfection date.
To validate those cells as a tool to screen potential PANX1 inhibitors a number of known PANX1 inhibitors were assessed by whole cell patch clamp and the voltage/current diagrams compared to current literature. The pipette solution was 151 mM […], 10 mM HEPES, 10 mM EGTA, 3 mM MgCl2. Cells were maintained in normal extracellular solution (NES: 140 mM NaCl, 5 mM KCl, 2 mM CaCl2, 1 mM MgCl2, 10 mM D-glucose, 10 mM HEPES, pH 7.3). Voltage ramps of 1 s duration between −80 mV and +80 mV were applied at 5 s intervals. Opening of Panx1 channel was induced by hypotonic shock, by replacing the isotonic extracellular solution (310 mOsml/l) with hypotonic extracellular solution (198 mOsml/l).

mice [1] = conditions: EAE MS model in mice; cited from earlier work
[2] = system: human cortical brain tissue slices; conditions: cited from earlier work
mice [3] = conditions: administered before naloxone; cited from earlier work
Tg mice = conditions: AD model, acute inhibition; cited from earlier work
mice [4] = conditions: acute; cited from earlier work
CRC cells = conditions: cited from earlier work

Compound: CC1CCCC(n2cnc3c(N4CCCC4C)ncnc32)O1 (stereo not shown) [CMPD019]
- release of ATP by astrocytes (astrocytes): prevented
- release of ATP by microglial cells (microglial cells): prevented

Compound: O=C(O)c1ccc2c(c1)c(C(=O)O)cn2CCCc1ccccc1 [CMPD043]
- release of ATP by astrocytes (astrocytes): prevented
- release of ATP by microglial cells (microglial cells): prevented

Compound: O=C(O)c1ccn2c(n1)nc1ccc(Cl)cc12 [CMPD054]
- release of ATP by astrocytes (astrocytes): prevented
- release of ATP by microglial cells (microglial cells): prevented

Compound: N[C@@H]1[C@H]2CN(c3nc4c(cc3F)c(=O)c(C(=O)O)cn4-c3cc(-c4nnn[nH]4)ccc3Cl)C[C@@H]12 [CMPD 053]
- release of ATP by astrocytes (astrocytes): prevented
- release of ATP by microglial cells (microglial cells): prevented

Compound: CC1(C)[C@@H](OC(=O)CCC(=O)O)CC[C@]2(C)[C@H]3C(=O)C=C4[C@@H]5C[C@@](C)(C(=O)O)CC[C@]5(C)CC[C@@]4(C)[C@]3(C)CC[C@@H]12 [Carbenoxolone]
- inhibitory effect on PANX1 (human PANX1 channels; at 50 μM): inhibitory effect

Compound: CCCN(CCC)S(=O)(=O)c1ccc(C(=O)O)cc1 [Probenecid]
- clinical symptoms (disease score) (mice [1]): reduced clinical symptoms
- ictal discharges [2]: blocked ictal discharges
- withdrawal behaviours (mice [3]): markedly reduced
- excitatory synaptic defects (Tg mice): significantly reduced excitatory synaptic defects

Compound: CC(=O)S[C@@H]1CC2=CC(=O)CC[C@]2(C)[C@H]2CC[C@@]3(C)[C@@H](CC[C@@]34CCC(=O)O4)[C@H]12 [Spirolactone, Spironolactone]
- inhibitory effect on PANX1 (human PANX1 channels; at 3, 10, or 30 μM): inhibitory effect
- blood pressure (mice [4]): acutely lowers blood pressure

Compound: OC(c1cc(C(F)(F)F)nc2c(C(F)(F)F)cccc12)C1CCCCN1 (stereo not shown) [mefloquine]
- ictal discharges [2]: blocked ictal discharges
- withdrawal behaviours (mice [3]): markedly reduced
- growth arrest and apoptosis of CRC cells (CRC cells; CRC cells harboring phosphorylated p65, in culture and in mice): induced growth arrest and apoptosis
- NF-κB inhibition (CRC cells; colorectal cancer cells): NF-κB inhibitor
